According to patent publication US12398155B2, “Thienopyridinone compounds” (Janssen Pharmaceutica NV, priority 2019, dated 2025):

Key:
[1] = target: T1, human FGFR3 wild type enzyme (cytoplasmic domain) (Homo sapiens, UniProt P22607); test: FGFR3 wild type mobility shift assay (enzymatic assay); type: biochemical; conditions: 75 μM ATP, 50 minutes at 30° C.; read-out: FGFR3 wild type Caliper
T1 construct: human FGFR3 wild type enzyme (cytoplasmic domain, from Cama Biosciences); purchased Cama Biosciences (so in the source)
Procedure: FGFR3 Wild Type Mobility Shift Assay (Enzymatic Assay)
(§1) In a final reaction volume of 25 μL, 0.04 ng/μL human FGFR3 wild type enzyme (cytoplasmic domain, from Cama Biosciences) was incubated with 75 μM ATP, 1 μM FL-peptide 30 substrate and 250 nL of testing compound (1% DMSO final) in assay buffer (100 mM HEPES pH 7.4, 10 mM MgCl2, 0.003% Brij35, 1 mM DTT). After incubation for 50 minutes at 30° C. the reaction was stopped with 10 μL of 0.5M EDTA pH 8.0, and then 25 μL of reaction mixture was transferred to reading plate and measured on Caliper EZ reader II. The substrate-product conversion rate was used as raw data for normalization and concentration-response curve (10 dose points with 4× serial dilution, starting with 10 μM) was plotted using Prism to calculate IC50 (M), pIC50 (−log IC50) and HillSlope value.

[2] = target: T2, human FGFR3 V555L enzyme (cytoplasmic domain carrying V555L mutation) (Homo sapiens, UniProt P22607, V555L); test: FGFR3 V555L mobility shift assay (enzymatic assay); type: biochemical; conditions: 40 μM ATP, 50 minutes at 30° C.; read-out: FGFR3 V555L Caliper
T2 construct: cytoplasmic domain carrying V555L mutation, from Cama Biosciences; purchased Cama Biosciences (so in the source)
Procedure: FGFR3 V555L Mobility Shift Assay (Enzymatic Assay)
as §1, with “V555L” for “wild type”, “domain carrying V555L mutation,” for “domain,”, “40” for “75”

[3] = test system: NIH/3T3 cells overexpressing FGFR3 WT-TACC3 fusion protein; test: NIH/3T3 FGFR3 WT-TACC3 cellular phospho-ERK assay (in vitro PD assay); type: cell-based; conditions: Mus musculus, NIH3T3; 1-hr incubation, AlphaLISA p-ERK1/2; read-out: NIH/3T3 FGFR3 WT-TACC3 pERK
Procedure: NIH/3T3 FGFR3 WT-TACC3 Cellular Phospho-ERK Assay (In Vitro PD Assay)
(§2) 50 μL of cell suspension (NIH/3T3 cells overexpressing FGFR3 WT-TACC3 fusion protein) (total 10,000 cells per well in growth medium (DMEM containing 1% Glutamax, 10% FBS and 1% Pen/Strep)) was seeded in a 384-well plate. After overnight incubation at 37° C. and 5% CO2, 5.5 μL of growth medium containing 10× testing compound was added into cell cultures (10 dose points with 4× serial dilution, starting with 10 μM, 0.1% DMSO final). After 1-hr incubation at 37° C. and 5% CO2, the medium was depleted and AlphaLISA SureFire Ultra p-ERKI1/2 (Thr202/Tyr204) Assay Kit (from PerkinElmer) was applied for phospho-ERK level detection according to the kit instructions. The RFUs (relative fluorescence units were measured on EnVision microplate reader (ex. 680 nm, em. 615 nm) and concentration-response curve was plotted using Prism to calculate IC50 (M), pIC50 (−log IC50) and HillSlope value.

[4] = test system: NIH/3T3 cells overexpressing FGFR3 V555M-TACC3 fusion protein; test: NIH/3T3 FGFR3 V555M-TACC3 cellular phospho-ERK assay (in vitro PD assay); type: cell-based; conditions: Mus musculus, NIH3T3; 1-hr incubation, AlphaLISA p-ERK1/2; read-out: NIH/3T3 FGFR3 V555M-TACC3 pERK
Procedure: NIH/3T3 FGFR3 V555M-TACC3 Cellular Phospho-ERK Assay (In Vitro PD Assay)
as §2, with “V555M-TACC3” for “WT-TACC3”

T2 sequence (P22607 397-806 V555L limits assumed): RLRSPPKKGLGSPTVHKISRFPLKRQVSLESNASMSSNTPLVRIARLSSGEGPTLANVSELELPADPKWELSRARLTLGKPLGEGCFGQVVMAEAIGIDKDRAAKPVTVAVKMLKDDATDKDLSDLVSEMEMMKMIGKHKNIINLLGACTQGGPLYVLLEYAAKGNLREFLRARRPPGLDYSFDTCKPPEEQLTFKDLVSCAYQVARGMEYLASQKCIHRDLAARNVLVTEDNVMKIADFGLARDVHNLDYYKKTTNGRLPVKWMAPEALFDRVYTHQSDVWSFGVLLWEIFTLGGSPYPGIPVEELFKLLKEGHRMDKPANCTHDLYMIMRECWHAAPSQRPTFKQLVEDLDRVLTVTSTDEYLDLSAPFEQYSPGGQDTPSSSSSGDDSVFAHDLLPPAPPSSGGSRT
T1 sequence (P22607 397-806 limits assumed): as the sequence (P22607 397-806 V555L limits assumed) above, with L159V counted along it

C[C@H](Nc1c(-c2nc3cnc(N4CCOCC4)cc3[nH]2)c(=O)[nH]c2ccsc12)c1ncccn1 [Compound 2, (S)-6-(6-Morpholino-1H-imidazo[4,5-c]pyridin-2-yl)-7-((1-(pyrimidin-2-yl)ethyl)amino)thieno[3,2-b]pyridin-5(4H)-one]
IC50 [1]: 0.31 nM
IC50 [2]: 0.32 nM
IC50 [3]: 1.09 nM
IC50 [4]: 1.6 nM
